# In patent US6355799B1, “Substituted benzene compounds, process for their preparation, and herbicidal and defoliant compositions containing them” (ISK Americas Incorporated, priority 1997, dated 2002):
# How the values were obtained:
# Format in all cases: in vivo
# [1] = test system: redroot pigweed (Amaranthus retroflexus, AMARE); assay: Pre-emerge test, greenhouse herbicide activity screening; conditions: pre-emerge; for phytotoxicity rating AMARE: 14 days after application, rating scale 0-100; for Pre-emerge Herbicidal Activity AMARE: phytotoxicity rating 0-100 at 14 days after application
# Outline: (§1)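 Visual ratings on a 0-100 scale (0 no damage, 100 all plants dead) were taken at 14 days after treatment. Rates of 15-1000 g ai/ha in acetone, 187 l/ha, were sprayed onto soil one day after planting (pre-emerge) or onto 2-3 leaf plants with 0.25% v/v surfactant (post-emerge).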
# [2] = test system: barnyardgrass (Echinochloa crus-galli, ECHCG); assay: as above; conditions: pre-emerge; for phytotoxicity rating ECHCG: 14 days after application, rating scale 0-100; for Pre-emerge Herbicidal Activity ECHCG: phytotoxicity rating 0-100 at 14 days after application
# Outline: (§2)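 Sandy loam pots; pre-emerge: sown 1 d pre-spray, surface-watered after, then bottom-watered. Post-emerge: sown 8–21 d before, 2–3 leaf stage, + 0.25% v/v NIS, bottom-watered. Acetone, 187 l/ha track spray, 15–1000 g ai/ha. 0–100 injury score, day 14.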
# [3] = test system: green foxtail (Setaria viridis, SETVI); assay: as above; conditions: pre-emerge; for phytotoxicity rating SETVI: 14 days after application, rating scale 0-100; for Pre-emerge Herbicidal Activity SETVI: phytotoxicity rating 0-100 at 14 days after application
# Outline: as §2
# [4] = test system: ivyleaf morningglory (Ipomoea hederacea, IPOHE); assay: as above; conditions: pre-emerge; for phytotoxicity rating IPOHE: 14 days after application, rating scale 0-100; for Pre-emerge Herbicidal Activity IPOHE: phytotoxicity rating 0-100 at 14 days after application
# Outline: as §2
# [5] = test system: johnsongrass (Sorghum halepense, SORHA); assay: as above; conditions: pre-emerge; for phytotoxicity rating SORHA: 14 days after application, rating scale 0-100; for Pre-emerge Herbicidal Activity SORHA: phytotoxicity rating 0-100 at 14 days after application
# Outline: as §2
# [6] = test system: lambsquarters (Chenopodium album, CHEAL); assay: as above; conditions: pre-emerge; for phytotoxicity rating CHEAL: 14 days after application, rating scale 0-100; for Pre-emerge Herbicidal Activity CHEAL: phytotoxicity rating 0-100 at 14 days after application
# Outline: as §2
# [7] = test system: large crabgrass (Digitaria sanguinalis, DIGSA); assay: as above; conditions: pre-emerge; for phytotoxicity rating DIGSA: 14 days after application, rating scale 0-100; for Pre-emerge Herbicidal Activity DIGSA: phytotoxicity rating 0-100 at 14 days after application
# Outline: as §2
# [8] = test system: sicklepod (Cassia obtusifolia, CASOB); assay: as above; conditions: pre-emerge; for phytotoxicity rating CASOB: 14 days after application, rating scale 0-100; for Pre-emerge Herbicidal Activity CASOB: phytotoxicity rating 0-100 at 14 days after application
# Outline: as §2
# [9] = test system: velvetleaf (Abutilon theophrasti, ABUTH); assay: as above; conditions: pre-emerge; for phytotoxicity rating ABUTH: 14 days after application, rating scale 0-100; for Pre-emerge Herbicidal Activity ABUTH: phytotoxicity rating 0-100 at 14 days after application
# Outline: as §2
# [10] = test system: field corn (Zea mays L., var. Dekalb 535, CORN); assay: Pre-emerge test, crop safety; conditions: pre-emerge; for phytotoxicity rating CORN: 14 days after application, rating scale 0-100; for Pre-emerge Herbicidal Activity CORN: crop damage, phytotoxicity rating 0-100 at 14 days after application
# Outline: (§3)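 Applied at 15–1000 g ai/ha from acetone in 187 l/ha spray volume. Post-emergence applications included 0.25% v/v non-ionic surfactant and reached plants sown 8–21 days before. Pre-emergence applications were incorporated by surface watering. Efficacy or crop damage was rated on a 0–100 scale after 14 days.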
# [11] = test system: upland rice (Oryza sp., var. Tebonnet, RICE); assay: Pre-emerge test, crop safety; conditions: pre-emerge; for phytotoxicity rating RICE: 14 days after application, rating scale 0-100; for Pre-emerge Herbicidal Activity RICE: crop damage, phytotoxicity rating 0-100 at 14 days after application
# Outline: as §3
# [12] = test system: barnyardgrass (Echinochloa crus-galli, ECHCG); assay: Post-emerge test, greenhouse herbicide activity screening; conditions: post-emerge, 14 days after application, rating scale 0-100
# Outline: as §1
# [13] = test system: green foxtail (Setaria viridis, SETVI); assay: as above; conditions: post-emerge, 14 days after application, rating scale 0-100
# Outline: as §1
# [14] = test system: ivyleaf morningglory (Ipomoea hederacea, IPOHE); assay: as above; conditions: post-emerge, 14 days after application, rating scale 0-100
# Outline: as §1
# [15] = test system: large crabgrass (Digitaria sanguinalis, DIGSA); assay: as above; conditions: post-emerge, 14 days after application, rating scale 0-100
# Outline: as §1
# [16] = test system: redroot pigweed (Amaranthus retroflexus, AMARE); assay: as above; conditions: post-emerge, 14 days after application
# Outline: as §1
# [17] = test system: sicklepod (Cassia obtusifolia, CASOB); assay: as above; conditions: post-emerge, 14 days after application, rating scale 0-100
# Outline: as §1
# [18] = test system: velvetleaf (Abutilon theophrasti, ABUTH); assay: as above; conditions: post-emerge, 14 days after application, rating scale 0-100
# Outline: as §1
# [19] = test system: field corn (Zea mays L., var. Dekalb 535, CORN); assay: Post-emerge test, crop safety; conditions: post-emerge, 14 days after application, rating scale 0-100
# Outline: as §2
# [20] = test system: upland rice (Oryza sp., var. Tebonnet, RICE); assay: Post-emerge test, crop safety; conditions: post-emerge, 14 days after application, rating scale 0-100
# Outline: as §2
smiles,measurement,setting,value
CCOC(=O)N(C)C(=O)NNc1c(OC)c(Cl)cc(F)c1-n1c(=O)cc(C(F)(F)F)n(C)c1=O [15-9],phytotoxicity rating AMARE,[1]; 63 g ai/ha,100
same,phytotoxicity rating AMARE,[1]; 250 g ai/ha,100
same,phytotoxicity rating ECHCG,[2]; 63 g ai/ha,99
same,phytotoxicity rating ECHCG,[2]; 250 g ai/ha,100
same,phytotoxicity rating SETVI,[3]; 63 g ai/ha,100
same,phytotoxicity rating SETVI,[3]; 250 g ai/ha,100
same,phytotoxicity rating IPOHE,[4]; 63 g ai/ha,99
same,phytotoxicity rating IPOHE,[4]; 250 g ai/ha,100
same,phytotoxicity rating SORHA,[5]; 63 g ai/ha,100
same,phytotoxicity rating SORHA,[5]; 250 g ai/ha,100
same,phytotoxicity rating CHEAL,[6]; 63 g ai/ha,100
same,phytotoxicity rating CHEAL,[6]; 250 g ai/ha,100
same,phytotoxicity rating DIGSA,[7]; 63 g ai/ha,90
same,phytotoxicity rating DIGSA,[7]; 250 g ai/ha,100
same,phytotoxicity rating CASOB,[8]; 63 g ai/ha,90
same,phytotoxicity rating CASOB,[8]; 250 g ai/ha,100
same,phytotoxicity rating ABUTH,[9]; 63 g ai/ha,100
same,phytotoxicity rating ABUTH,[9]; 250 g ai/ha,100
same,phytotoxicity rating CORN,[10]; 63 g ai/ha,85
same,phytotoxicity rating CORN,[10]; 250 g ai/ha,98
same,phytotoxicity rating RICE,[11]; 63 g ai/ha,95
same,phytotoxicity rating RICE,[11]; 250 g ai/ha,100
same,Post-emerge Herbicidal Activity ECHCG (phytotoxicity rating),[12]; 63 g ai/ha,0
same,Post-emerge Herbicidal Activity ECHCG (phytotoxicity rating),[12]; 250 g ai/ha,90
same,Post-emerge Herbicidal Activity SETVI (phytotoxicity rating),[13]; 63 g ai/ha,0
same,Post-emerge Herbicidal Activity SETVI (phytotoxicity rating),[13]; 250 g ai/ha,80
same,Post-emerge Herbicidal Activity IPOHE (phytotoxicity rating),[14]; 63 g ai/ha,100
same,Post-emerge Herbicidal Activity IPOHE (phytotoxicity rating),[14]; 250 g ai/ha,85
same,Post-emerge Herbicidal Activity DIGSA (phytotoxicity rating),[15]; 63 g ai/ha,0
same,Post-emerge Herbicidal Activity DIGSA (phytotoxicity rating),[15]; 250 g ai/ha,80
same,Post-emerge Herbicidal Activity AMARE (phytotoxicity rating),"[16]; 63 g ai/ha, rating scale 0-100 (0 no damage, 100 complete death)",10
same,Post-emerge Herbicidal Activity AMARE (phytotoxicity rating),"[16]; 250 g ai/ha, rating scale 0-100",95
same,Post-emerge Herbicidal Activity CASOB (phytotoxicity rating),[17]; 63 g ai/ha,10
same,Post-emerge Herbicidal Activity CASOB (phytotoxicity rating),[17]; 250 g ai/ha,60
same,Post-emerge Herbicidal Activity ABUTH (phytotoxicity rating),[18]; 63 g ai/ha,80
same,Post-emerge Herbicidal Activity ABUTH (phytotoxicity rating),[18]; 250 g ai/ha,100
same,Post-emerge Herbicidal Activity CORN (crop damage rating),[19]; 63 g ai/ha,30
same,Post-emerge Herbicidal Activity CORN (crop damage rating),[19]; 250 g ai/ha,70
same,Post-emerge Herbicidal Activity RICE (crop damage rating),[20]; 63 g ai/ha,50
same,Post-emerge Herbicidal Activity RICE (crop damage rating),[20]; 250 g ai/ha,90
COc1c(Cl)cc(F)c(-n2nnn(CCCF)c2=O)c1N [Compound 5-3],Pre-emerge Herbicidal Activity AMARE,[1]; rate 63 g ai/ha,60
same,Pre-emerge Herbicidal Activity AMARE,[1]; rate 250 g ai/ha,100
same,Pre-emerge Herbicidal Activity ECHCG,[2]; rate 63 g ai/ha,0
same,Pre-emerge Herbicidal Activity ECHCG,[2]; rate 250 g ai/ha,20
same,Pre-emerge Herbicidal Activity SETVI,[3]; rate 63 g ai/ha,70
same,Pre-emerge Herbicidal Activity SETVI,[3]; rate 250 g ai/ha,100
same,Pre-emerge Herbicidal Activity IPOHE,[4]; rate 63 g ai/ha,0
same,Pre-emerge Herbicidal Activity IPOHE,[4]; rate 250 g ai/ha,10
same,Pre-emerge Herbicidal Activity SORHA,[5]; rate 63 g ai/ha,0
same,Pre-emerge Herbicidal Activity SORHA,[5]; rate 250 g ai/ha,95
same,Pre-emerge Herbicidal Activity CHEAL,[6]; rate 63 g ai/ha,100
same,Pre-emerge Herbicidal Activity CHEAL,[6]; rate 250 g ai/ha,100
same,Pre-emerge Herbicidal Activity DIGSA,[7]; rate 63 g ai/ha,30
same,Pre-emerge Herbicidal Activity DIGSA,[7]; rate 250 g ai/ha,100
same,Pre-emerge Herbicidal Activity CASOB,[8]; rate 63 g ai/ha,0
same,Pre-emerge Herbicidal Activity CASOB,[8]; rate 250 g ai/ha,30
same,Pre-emerge Herbicidal Activity ABUTH,[9]; rate 63 g ai/ha,100
same,Pre-emerge Herbicidal Activity ABUTH,[9]; rate 250 g ai/ha,100
same,Pre-emerge Herbicidal Activity CORN,[10]; rate 63 g ai/ha,0
same,Pre-emerge Herbicidal Activity CORN,[10]; rate 250 g ai/ha,0
same,Pre-emerge Herbicidal Activity RICE,[11]; rate 63 g ai/ha,20
same,Pre-emerge Herbicidal Activity RICE,[11]; rate 250 g ai/ha,20
